We go through three molecules from ChEMBL document CHEMBL1139487, “Discovery of corticotropin releasing factor 2 receptor selective sauvagine analogues for treatment of skeletal muscle atrophy” (J Med Chem, 2005).

Square brackets hold non-standard residues; d marks the D form. Peptide text beside a SMILES is read from it. pGlu = O=C1CC[C@@H](C(=O)O)N1

The target of test [1] is Corticotropin-releasing factor receptor 2 (Mus musculus) (UniProt Q60748). Description: In vitro agonistic activity against mouse corticotropin releasing factor 2 receptor. Type of test: functional.
Chain of Corticotropin-releasing factor receptor 2 (Mus musculus) (Q60748 whole entry): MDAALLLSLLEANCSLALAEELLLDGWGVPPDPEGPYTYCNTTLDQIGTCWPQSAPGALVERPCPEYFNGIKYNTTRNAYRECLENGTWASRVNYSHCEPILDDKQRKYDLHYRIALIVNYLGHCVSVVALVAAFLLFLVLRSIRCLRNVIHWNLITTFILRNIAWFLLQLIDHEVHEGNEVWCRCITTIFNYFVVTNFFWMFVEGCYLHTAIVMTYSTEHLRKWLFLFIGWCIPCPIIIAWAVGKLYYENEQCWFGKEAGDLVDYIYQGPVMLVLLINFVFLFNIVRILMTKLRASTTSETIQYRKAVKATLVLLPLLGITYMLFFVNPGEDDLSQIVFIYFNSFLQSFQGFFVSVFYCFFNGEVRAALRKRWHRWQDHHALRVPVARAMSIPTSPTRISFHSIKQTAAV
In test [2] the target is T1, Corticotropin-releasing factor receptor 1 (Mus musculus) (UniProt P35347).
T1 sequence (whole entry): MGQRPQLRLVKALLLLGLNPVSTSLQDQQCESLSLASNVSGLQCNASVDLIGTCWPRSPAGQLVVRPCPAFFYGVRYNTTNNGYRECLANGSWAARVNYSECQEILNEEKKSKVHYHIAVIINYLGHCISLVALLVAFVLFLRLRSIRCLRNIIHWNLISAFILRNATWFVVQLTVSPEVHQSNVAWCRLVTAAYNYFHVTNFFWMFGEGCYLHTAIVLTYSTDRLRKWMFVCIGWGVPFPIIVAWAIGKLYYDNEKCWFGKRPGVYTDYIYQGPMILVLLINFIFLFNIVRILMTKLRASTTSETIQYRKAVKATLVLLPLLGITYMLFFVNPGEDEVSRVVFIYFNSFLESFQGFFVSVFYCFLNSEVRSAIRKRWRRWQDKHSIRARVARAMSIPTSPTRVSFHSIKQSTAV
The test can be described thus: In vitro agonistic activity against mouse corticotropin releasing factor 1 receptor. Type of test: functional.

Another test is filed under the species Mus musculus. Description: Selectivity ratio of EC50s for mouse corticotropin releasing factor receptors 1 and 2.

`CC[C@H](C)[C@H](NC(=O)[C@@H](NC(=O)[C@H](CC(=O)O)NC(=O)[C@H](CC(C)C)NC(=O)[C@H](CC(C)C)NC(=O)[C@H](CC(C)C)NC(=O)[C@H](CCCN=C(N)N)NC(=O)[C@H](CC(N)=O)NC(=O)[C@H](CC(N)=O)NC(=O)[C@H](C)NC(=O)[C@H](C)NC(=O)[C@H](CCC(N)=O)NC(=O)[C@H](CCC(N)=O)NC(=O)[C@H](CCCCN)NC(=O)[C@H](CCC(=O)O)NC(=O)[C@H](CCCCN)NC(=O)[C@H](CCC(=O)O)NC(=O)[C@H](CCC(N)=O)NC(=O)[C@H](CCCCN)NC(=O)[C@H](CCC(=O)O)NC(=O)[C@@H](NC(=O)[C@H](CCC(=O)O)NC(=O)[C@@H](NC(=O)[C@H](CCSC)NC(=O)[C@H](CCCCN)NC(=O)[C@H](CCCN=C(N)N)NC(=O)[C@H](CC(C)C)NC(=O)[C@H](CC(C)C)NC(=O)[C@H](Cc1ccc(O)cc1)NC(=O)[C@H](CC(C)C)NC(=O)[C@@H]1CCCN1C(=O)[C@H](CC(C)C)NC(=O)[C@H](CC(=O)O)NC(=O)[C@@H](NC(=O)[C@H](CO)NC(=O)[C@@H](NC(=O)[C@@H]1CCCN1C(=O)[C@@H]1CCCN1C(=O)CNC(=O)[C@@H]1CCC(=O)N1)[C@@H](C)CC)[C@@H](C)CC)[C@@H](C)CC)[C@@H](C)CC)[C@@H](C)O)C(=O)O` ([pGlu]GPPISIDLPLYLLRKMIEIEKQEKEKQQAANNRLLLDTI-OH): the Emax amounted to 73% in test [1] and 79% in test [2]. Also, the Selectivity in the test listed under Mus musculus was 16.
As to `CC[C@H](C)[C@H](NC(=O)[C@@H](NC(=O)[C@H](CC(=O)O)NC(=O)[C@H](CC(C)C)NC(=O)[C@H](CC(C)C)NC(=O)[C@H](CC(C)C)NC(=O)[C@H](CCCN=C(N)N)NC(=O)[C@H](CC(N)=O)NC(=O)[C@H](CC(N)=O)NC(=O)[C@H](C)NC(=O)[C@H](C)NC(=O)[C@H](CCC(N)=O)NC(=O)[C@H](CCC(N)=O)NC(=O)[C@H](CCCCN)NC(=O)[C@H](CCC(=O)O)NC(=O)[C@H](CCCCN)NC(=O)[C@H](CCC(=O)O)NC(=O)[C@H](CCC(N)=O)NC(=O)[C@H](CCCCN)NC(=O)[C@H](CCC(=O)O)NC(=O)[C@@H](NC(=O)[C@H](CCC(=O)O)NC(=O)[C@@H](NC(=O)[C@H](CCSC)NC(=O)[C@H](CCCCN)NC(=O)[C@H](CCCN=C(N)N)NC(=O)[C@H](CC(C)C)NC(=O)[C@H](CC(C)C)NC(=O)[C@H](Cc1ccccc1)NC(=O)[C@H](Cc1ccc(O)cc1)NC(=O)[C@@H]1CCCN1C(=O)[C@H](CC(C)C)NC(=O)[C@H](CC(=O)O)NC(=O)[C@@H](NC(=O)[C@H](CO)NC(=O)[C@@H](NC(=O)[C@@H]1CCCN1C(=O)[C@@H]1CCCN1C(=O)CNC(=O)[C@@H]1CCC(=O)N1)[C@@H](C)CC)[C@@H](C)CC)[C@@H](C)CC)[C@@H](C)CC)[C@@H](C)O)C(=O)O`, the Emax in test [1] was 98%; in test [2] it was 81%. Besides, the Selectivity in the test filed under Mus musculus stood at 16.
As to `CC[C@H](C)[C@H](NC(=O)[C@@H](NC(=O)[C@H](CC(=O)O)NC(=O)[C@H](CC(C)C)NC(=O)[C@H](CC(C)C)NC(=O)[C@H](CC(C)C)NC(=O)[C@H](CCCN=C(N)N)NC(=O)[C@H](CC(N)=O)NC(=O)[C@H](CC(N)=O)NC(=O)[C@H](C)NC(=O)[C@H](C)NC(=O)[C@H](CCC(N)=O)NC(=O)[C@H](CCC(N)=O)NC(=O)[C@H](CCCCN)NC(=O)[C@H](CCC(=O)O)NC(=O)[C@H](CCCCN)NC(=O)[C@H](CCC(=O)O)NC(=O)[C@H](CCC(N)=O)NC(=O)[C@H](CCCCN)NC(=O)[C@H](CCC(=O)O)NC(=O)[C@@H](NC(=O)[C@H](CCC(=O)O)NC(=O)[C@@H](NC(=O)[C@H](CCSC)NC(=O)[C@H](CCCCN)NC(=O)[C@H](CCCN=C(N)N)NC(=O)[C@H](CC(C)C)NC(=O)[C@H](CC(C)C)NC(=O)[C@H](CC(C)C)NC(=O)[C@H](Cc1ccc(O)cc1)NC(=O)[C@@H]1CCCN1C(=O)[C@H](CC(C)C)NC(=O)[C@H](CC(=O)O)NC(=O)[C@@H](NC(=O)[C@H](CO)NC(=O)[C@@H](NC(=O)[C@@H]1CCCN1C(=O)[C@@H]1CCCN1C(=O)CNC(=O)[C@@H]1CCC(=O)N1)[C@@H](C)CC)[C@@H](C)CC)[C@@H](C)CC)[C@@H](C)CC)[C@@H](C)O)C(=O)O`, the Emax in test [1] amounted to 94%; in test [2], 86%. Also, the Selectivity in the test listed under Mus musculus was 15.
